Reference: US11230543B2, “Biaryl monobactam compounds and methods of use thereof for the treatment of bacterial infections” (priority 2015, dated 2022)
Counter-ions that a name gives are not always drawn.

Experiments:
[1] = tested on: Klebsiella pneumoniae expressing KPC-1 (CL6569); assay: Antibiotic activity: growth inhibitory concentration (OD600), Klebsiella pneumoniae CL6569; assay type: cell-based; details: lowest concentration inhibiting 95% of bacterial growth; in the presence of β lactamase inhibitor Relebactam 4 μg/mL; 35±2° C. for 22 hours; tested range 100 μM to 0.098 μM
Outline: (§1)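 Growth inhibition by OD600 after 22 hours incubation at 35±2° C, reported as lowest concentration inhibiting 95% of growth (MITC95). Final compound range 100 μM to 0.098 μM, always combined with β-lactamase inhibitor relebactam (4 μg/mL final); inoculum ~2×10^5 CFU/mL in cation-adjusted Mueller-Hinton II broth.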

[2] = tested on: Pseudomonas aeruginosa expressing AmpC (CL5701); assay: Antibiotic activity: growth inhibitory concentration (OD600), Pseudomonas aeruginosa CL5701; assay type: cell-based; details: lowest concentration inhibiting 95% of bacterial growth; in the presence of β lactamase inhibitor Relebactam 4 μg/mL; 35±2° C. for 22 hours; tested range 100 μM to 0.098 μM
Outline: as §1

Compound	KP_CL6569 MITC95 [1]	PA_CL5701 MITC95 [2]
C[C@@H]1[C@H](NC(=O)/C(=N\O[C@@](C)(COc2ccc(-c3cn(CCCN)[n+](C)c3)cc2)C(=O)O)c2csc(N)n2)C(=O)N1S(=O)(=O)O.O=C([O-])C(F)(F)F [Example 25, 1-(3-aminopropyl)-4-(4-((S)-2-((((Z)-1-(2-aminothiazol-4-yl)-2-(((2R,3S)-2-methyl-4-oxo-1-sulfoazetidin-3-yl)amino)-2-oxoethylidene)amino)oxy)-2-carboxypropoxy)phenyl)-2-methyl-1H-pyrazol-2-ium 2,2,2-trifluoroacetate]	0.3906 µM	3.125 µM
CC1(C)[C@H](NC(=O)/C(=N\OCCOc2ccc(-c3nc4c([nH]3)CNCC4)cc2)c2csc(N)n2)C(=O)N1OS(=O)(=O)O [Example 86, (S)-3-(2-(2-aminothiazol-4-yl)-2-((2-(4-(4,5,6,7-tetrahydro-3H-imidazo[4,5-c]pyridin-2-yl)phenoxy)ethoxy)imino)acetamido)-2,2-dimethyl-4-oxoazetidin-1-yl hydrogen sulfate]	1.281 µM	25 µM
COP(=O)(O)[C@H](COc1ccc(-c2cn(CCCN)[n+](C)c2)cc1)O/N=C(\C(=O)N[C@@H]1C(=O)N(OS(=O)(=O)O)C1(C)C)c1csc(N)n1.O=C(O)C(F)(F)F [Example 41, (3S)-3-((Z)-2-(((1R)-2-(4-(1-(3-aminopropyl)-2-methyl-1H-pyrazol-2-ium-4-yl)phenoxy)-1-(hydroxy(methoxy)phosphoryl)ethoxy)imino)-2-(2-aminothiazol-4-yl)acetamido)-2,2-dimethyl-4-oxoazetidin-1-yl sulfate compound with 2,2,2-trifluoroacetic acid (1:1)]	1.563 µM	25 µM
CC1(C)[C@H](NC(=O)/C(=N\O[C@@H](COc2ccc(-n3cc[n+](CC4CNC4)c3)nc2)C(=O)O)c2csc(N)n2)C(=O)N1OS(=O)(=O)[O-] [Example 109, (S)-3-((Z)-2-(2-aminothiazol-4-yl)-2-(((S)-2-((6-(3-(azetidin-3-ylmethyl)-1H-imidazol-3-ium-1-yl)pyridin-3-yl)oxy)-1-carboxyethoxy)imino)acetamido)-2,2-dimethyl-4-oxoazetidin-1-yl sulfate]	0.7813 µM	12.5 µM
C[n+]1cc(-c2ccc(OC[C@](C)(O/N=C(\C(=O)N[C@@H]3C(=O)N(OS(=O)(=O)O)C3(C)C)c3csc(N)n3)C(=O)O)cc2)cn1CCCN [Example 39, (S)-3-((Z)-2-((((S)-1-(4-(1-(3-aminopropyl)-2-methyl-1H-pyrazol-2-ium-4-yl)phenoxy)-2-carboxypropan-2-yl)oxy)imino)-2-(2-aminothiazol-4-yl)acetamido)-2,2-dimethyl-4-oxoazetidin-1-yl sulfate]	0.3255 µM	3.125 µM
C[n+]1cc(-c2ccc(OC[C@H](O/N=C(\C(=O)N[C@@H]3C(=O)N(OS(=O)(=O)[O-])C3(C)C)c3csc(N)n3)C(=O)O)cc2)ccc1C(=O)NC(CN)CN [Example 80, (S)-3-((Z)-2-(2-aminothiazol-4-yl)-2-(((S)-1-carboxy-2-(4-(6-((1,3-diaminopropan-2-yl)carbamoyl)-1-methylpyridin-1-ium-3-yl)phenoxy)ethoxy)imino)acetamido)-2,2-dimethyl-4-oxoazetidin-1-yl sulfate]	0.1953 µM	3.125 µM
CC1(C)[C@H](NC(=O)/C(=N\O[C@@H](COc2cnc(-n3cc[n+](CCCN)c3)nc2)C(=O)O)c2csc(N)n2)C(=O)N1OS(=O)(=O)[O-] [Example 111, (S)-3-((Z)-2-(((S)-2-((2-(3-(3-aminopropyl)-1H-imidazol-3-ium-1-yl)pyrimidin-5-yl)oxy)-1-carboxyethoxy)imino)-2-(2-aminothiazol-4-yl)acetamido)-2,2-dimethyl-4-oxoazetidin-1-yl sulfate]	1.563 µM	50 µM
CC1[C@H](NC(=O)/C(=N\O[C@@H](COc2ccc(-c3cnn(CCCN)c3)cc2)C(=O)O)c2csc(N)n2)C(=O)N1S(=O)(=O)O (stereo in doubt) [Example 8, (S)-3-(4-(1-(3-aminopropyl)-1H-pyrazol-4-yl)phenoxy)-2-((((Z)-1-(2-aminothiazol-4-yl)-2-(((2R,3S)-2-methyl-4-oxo-1-sulfoazetidin-3-yl)amino)-2-oxoethylidene)amino)oxy)propanoic acid]	3.125 µM	25 µM
CC1(C)[C@H](NC(=O)/C(=N\O[C@@H](COc2ccc(Nc3cc[n+](CCCN)cc3)nc2)C(=O)O)c2csc(N)n2)C(=O)N1OS(=O)(=O)O [Example 33, 1-(3-aminopropyl)-4-((5-((S)-2-((((Z)-1-(2-aminothiazol-4-yl)-2-(((S)-2,2-dimethyl-4-oxo-1-(sulfooxy)azetidin-3-yl)amino)-2-oxoethylidene)amino)oxy)-2-carboxyethoxy)pyridin-2-yl)amino)pyridin-1-ium 2,2,2-trifluoroacetate]	0.3906 µM	6.25 µM
CC1(C)[C@H](NC(=O)/C(=N\O[C@@H](COc2ccc(-c3ccc(NCCN)[n+](CC4CNC4)c3)cc2)C(=O)O)c2csc(N)n2)C(=O)N1OS(=O)(=O)[O-] [Example 98, (S)-3-((Z)-2-(((S)-2-(4-(6-((2-aminoethyl)amino)-1-(azetidin-3-ylmethyl)pyridin-1-ium-3-yl)phenoxy)-1-carboxyethoxy)imino)-2-(2-aminothiazol-4-yl)acetamido)-2,2-dimethyl-4-oxoazetidin-1-yl sulfate]	0.09766 µM	1.563 µM
C[n+]1cc(-c2ccc(OC[C@H](O/N=C(\C(=O)N[C@@H]3C(=O)N(OS(=O)(=O)[O-])C3(C)C)c3csc(N)n3)C(=O)O)cc2)cnc1NCCN [Example 77, (S)-3-((Z)-2-(((S)-2-(4-(2-((2-aminoethyl)amino)-1-methylpyrimidin-1-ium-5-yl)phenoxy)-1-carboxyethoxy)imino)-2-(2-aminothiazol-4-yl)acetamido)-2,2-dimethyl-4-oxoazetidin-1-yl sulfate]	0.3906 µM	3.125 µM
Cn1c(-c2ccc(OC[C@H](O/N=C(\C(=O)N[C@@H]3C(=O)N(OS(=O)(=O)O)C3(C)C)c3csc(N)n3)C(=O)O)cc2)cn(CCCN)c1=N.O=C(O)C(F)(F)F [Example 32, 3-(4-(4-((S)-2-((((Z)-1-(2-aminothiazol-4-yl)-2-(((S)-2,2-dimethyl-4-oxo-1-(sulfooxy)-azetidin-3-yl)amino)-2-oxoethylidene)amino)oxy)-2-carboxyethoxy)phenyl)-2-imino-3-methyl-2,3-dihydro-1H-imidazol-1-yl)propan-1-aminium 2,2,2-trifluoroacetate]	0.1953 µM	3.125 µM
CC1(C)[C@H](NC(=O)/C(=N\O[C@@H](COc2ccc(-c3cn(CCCN)[n+](CCN)c3)cc2)C(=O)O)c2csc(N)n2)C(=O)N1OS(=O)(=O)[O-] [Example 100, (S)-3-((Z)-2-(((S)-2-(4-(2-(2-aminoethyl)-1-(3-aminopropyl)-1H-pyrazol-2-ium-4-yl)phenoxy)-1-carboxyethoxy)imino)-2-(2-aminothiazol-4-yl)acetamido)-2,2-dimethyl-4-oxoazetidin-1-yl sulfate]	0.39 µM	3.125 µM
C[n+]1c(N)c(-c2ccc(OC[C@H](O/N=C(\C(=O)N[C@@H]3C(=O)N(OS(=O)(=O)[O-])C3(C)C)c3csc(N)n3)C(=O)O)cc2F)cn1CCCN [Example 47, (S)-3-((Z)-2-(((S)-2-(4-(3-Amino-1-(3-aminopropyl)-2-methyl-1H-pyrazol-2-ium-4-yl)-3-fluorophenoxy)-1-carboxyethoxy)imino)-2-(2-aminothiazol-4-yl)acetamido)-2,2-dimethyl-4-oxoazetidin-1-yl sulfate]	0.3906 µM	3.125 µM
C[n+]1cc(-c2ccc(OC[C@](C)(O/N=C(\C(=O)N[C@@H]3C(=O)N(OS(=O)(=O)O)C3(C)C)c3csc(N)n3)C(=O)O)cc2)ccc1NCCN [Example 87, (S)-3-((Z)-2-((((S)-1-(4-(6-((2-aminoethyl)amino)-1-methylpyridin-1-ium-3-yl)phenoxy)-2-carboxypropan-2-yl)oxy)imino)-2-(2-aminothiazol-4-yl)acetamido)-2,2-dimethyl-4-oxoazetidin-1-yl sulfate]	0.1953 µM	3.125 µM
C[n+]1cc(-c2ccc(OC[C@H](O/N=C(\C(=O)N[C@@H]3C(=O)N(OS(=O)(=O)O)C3(C)C)c3csc(N)n3)C(=O)O)cc2F)cn1CC(N)CN (single isomer, unassigned) [Example 45]	0.3906 µM	6.25 µM
C[n+]1cc(-c2ccc(OCCO/N=C(\C(=O)N[C@@H]3C(=O)N(OS(=O)(=O)O)C3(C)C)c3csc(N)n3)cc2)cn1CCCN [Example 4, (S,Z)-3-(2-((2-(4-(1-(3-aminopropyl)-2-methyl-1H-pyrazol-2-ium-4-yl)phenoxy)ethoxy)imino)-2-(2-aminothiazol-4-yl)acetamido)-2,2-dimethyl-4-oxoazetidin-1-yl sulfate]	1.281 µM	25 µM
